What was measured:
[1] = system: Barnyardgrass (Echinochloa crus-galli); test: Upland Soil Application Test; assay type: in vivo; details: 30 g ai/a; soil application before emergence, wettable powder; observed 30 days later
Procedure: (§1) Resin-made 1/2500-are pots were filled with the soil of an upland field. After they were fertilized, soybean, corn and cotton were seeded and 2-3 cm soil covering was applied. Seeds of redroot pigweed, morningglory (Ipomoea purpurea), common lambsquarters, barnyardgrass, green foxtail, large crabgrass, foxtail meadow and johnsongrass had been uniformly mixed with the soil. They were allowed to germinate in a green house. One day later (before emergence of weeds), a wettable powder prepared from a predetermined amount of each test compound in a similar manner to the method described in Formulation Example 1 was diluted with water and then sprayed evenly at an application rate equal to 10 l per are onto the surface of the soil by means of a pressure-operated ULV (ultra low volume) sprayer. Influence to the crops and weeds were observed 30 days later. The results are shown in Table 3, in which the degree of damages of each test plant and the degree of injury to each crop were determined by comparing the air-dried weights of the test plant and crop with those of the corresponding plant and crop in untreated pots and are shown in accordance with the following standard: […]

[2] = system: Foxtail (Setaria viridis); test: Upland Soil Application Test; assay type: in vivo; details: 30 g ai/a; soil application before emergence, wettable powder; observed 30 days later
Procedure: as §1

[3] = system: Common lambsquarters; test: Upland Soil Application Test; assay type: in vivo; details: 30 g ai/a; soil application before emergence, wettable powder; observed 30 days later
Procedure: as §1

[4] = system: Foxtail meadow; test: Upland Soil Application Test; assay type: in vivo; details: 30 g ai/a; soil application before emergence, wettable powder; observed 30 days later
Procedure: as §1

[5] = system: Johnsongrass; test: Upland Soil Application Test; assay type: in vivo; details: 30 g ai/a; soil application before emergence, wettable powder; observed 30 days later
Procedure: as §1

[6] = system: Redroot Pigweed; test: Upland Soil Application Test; assay type: in vivo; details: 30 g ai/a; soil application before emergence, wettable powder; observed 30 days later
Procedure: as §1

[7] = system: ALS (acetolactate synthase); test: ALS (Acetolactate Synthase) Inhibition Test, pea enzyme; assay type: biochemical; details: enzymoreaction inhibition rate at 10 ppm (5 μg/0.5 ml)
Procedure: To determine the selectivity in enzyme level between crops and weeds, an ALS inhibition test was conducted using pea as a representative of broadleaf crops and barnyardgrass as a representative of gramineous weeds.
After seeds of pea and barnyardgrass were allowed to germinate at 25° C. for 8-14 days in a dark place, partially-purified suspensions (Suspensions A) of acetolactate syntase were separately obtained from seedlings in accordance with the method described in the literature, Plant Physiology, 75, 827-831. In a test tube, […], followed by the addition of 0.15 ml of a 20 mM K2 HPO4 solution and 0.25 ml of a reaction substrate medium which consisted of 40 mM of K2 HPO4, 40 mM of sodium pyruvate, 1 mM of TPP, 1 mM of MgCl2 and 20 μM of FAD so that 0.4 ml of a reaction solution (Solution B) was prepared. Added to 0.4 ml of Solution B was 0.1 ml of Suspension A. After the resultant mixture was shaken for 1 hour in a thermostat water bath controlled at 30° C., 50 μl of 6N sulfuric acid were added to terminate the reaction.
Next, the reaction-terminated liquid mixture was transferred into a thermostat water bath controlled at 60° C. and was heated for 15 minutes. Thereafter, 0.5 ml of a 0.5% creatine solution and 0.5 ml of a 5% alkaline α-naphthol solution were added, and the resultant mixture was maintained at 60° C. for 15 minutes. As a result, the test solution developed a pink-red color. After the above operation, the absorbance of the test solution at 525 nm was measured by a spectrophotometer (Absorbance 1 of Test Compound).
On the other hand, the absorbance (Absorbance 2 of Blank) of a solution obtained by subjecting a portion of Solution B, said portion being free of the test compound, to the above operation and the absorbance (Absorbance 3 of sulfuric acid terminated) of another solution obtained by subjecting another portion of Solution B, said portion containing 50 μl of 6N sulfuric acid as a test compound, were measured at the same time. […] [formula]

[8] = system: Soybean (Glycine max); test: Upland Soil Application Test, crop injury; assay type: in vivo; details: 30 g ai/a; soil application before emergence, wettable powder; observed 30 days later
Procedure: as §1

[9] = system: Cotton (Gossypium indicum); test: Upland Soil Application Test, crop injury; assay type: in vivo; details: 30 g ai/a; soil application before emergence, wettable powder; observed 30 days later
Procedure: as §1

[10] = system: Corn (Zea maize); test: Upland Soil Application Test, crop injury; assay type: in vivo; details: 30 g ai/a; soil application before emergence, wettable powder; observed 30 days later
Procedure: as §1

[11] = system: Crabgrass (Digitaria adsendens); test: Upland Foliar Application Test; assay type: in vivo; details: 30 g ai/a; foliar application at 2-3 leaf stage, emulsion; observed on the 30th day
Excerpt: (§2) Resin-made 1/10000-are pots were filled with the soil of an upland field. Redroot pigweed, morningglory (Ipomoea pupurea), common lambsquarters, foxtail meadow, johnsongrass, barnyardgrass, green foxtail, large crabgrass, soybean, corn and cotton were separately seeded and were allowed to germinate in a green house. When each plant grew to the stage of 2-3 leaves, an emulsion formulated from a predetermined amount of each test compound in a similar manner to the method described in Formulation Example 11 was diluted with water and then sprayed at a predetermined application rate by means of a pressure-operated ULV (ultra low volume) sprayer. The application rate was controlled at 5 l per are. Influence to the crops and weeds were observed on the 30th day after the spray of the herbicides. The results are shown in Table 4 in which the degree of damages of each test plant and the degree of injury to each crop are shown in a similar manner to Test 2.

[12] = system: Barnyardgrass (Echinochloa crus-galli); test: Upland Foliar Application Test; assay type: in vivo; details: 30 g ai/a; foliar application at 2-3 leaf stage, emulsion; observed on the 30th day
Excerpt: as §2

[13] = system: Foxtail (Setaria viridis); test: Upland Foliar Application Test; assay type: in vivo; details: 30 g ai/a; foliar application at 2-3 leaf stage, emulsion; observed on the 30th day
Excerpt: as §2

[14] = system: Common lambsquarters; test: Upland Foliar Application Test; assay type: in vivo; details: 30 g ai/a; foliar application at 2-3 leaf stage, emulsion; observed on the 30th day
Excerpt: as §2

[15] = system: Foxtail meadow; test: Upland Foliar Application Test; assay type: in vivo; details: 30 g ai/a; foliar application at 2-3 leaf stage, emulsion; observed on the 30th day
Excerpt: as §2

[16] = system: Johnsongrass; test: Upland Foliar Application Test; assay type: in vivo; details: 30 g ai/a; foliar application at 2-3 leaf stage, emulsion; observed on the 30th day
Excerpt: as §2

[17] = system: Redroot Pigweed; test: Upland Foliar Application Test; assay type: in vivo; details: 30 g ai/a; foliar application at 2-3 leaf stage, emulsion; observed on the 30th day
Excerpt: as §2

Compound | Herbicidal effects Barnyardgrass (Echinochloa crus-galli) [1] | Herbicidal effects Foxtail (Setaria viridis) [2] | Herbicidal effects Common lambquarters [3] | Herbicidal effects Foxtail meadow [4] | Herbicidal effects Johnsongrass [5] | Herbicidal effects Redroot Pigweed [6] | Inhibition rate (%) Pea [7] [%] | Crop injury Soybean (Glycine max) [8] | Crop injury Cotton (Gossypium indicum) [9] | Crop injury Corn (Zea maize) [10] | Herbicidal effects Crabgrass (Digitaria adsendens) [11] | Herbicidal effects Barnyardgrass (Echinochloa crus-galli) [12] | Herbicidal effects Foxtail (Setaria viridis) [13] | Herbicidal effects Common lambquarters [14] | Herbicidal effects Foxtail meadow [15] | Herbicidal effects Johnsongrass [16] | Herbicidal effects Redroot Pigweed [17]
COc1cc(OC)nc(Oc2cccnc2C2OCCCO2)n1 [Compound No. 8] | 4 (6-10 (Severe damages)) | 3 (11-40 (Medium damages)) | 3 (11-40 (Medium damages)) | 4 (6-10 (Severe damages)) | 4 (6-10 (Severe damages)) | 3 (11-40 (Medium damages)) | 0 | 0 (91-100 (No damages)) | 0 (91-100 (No damages)) | 0 (91-100 (No damages)) | 3 (11-40 (Medium damages)) | 4 (6-10 (Severe damages)) | 4 (6-10 (Severe damages)) | 4 (6-10 (Severe damages)) | 4 (6-10 (Severe damages)) | 5 (0-5 (Death)) | 4 (6-10 (Severe damages))
CCCCOC(OCCCC)c1ncccc1Oc1nc(OC)cc(OC)n1 [Compound No. 4] | 5 (0-5 (Death)) | 5 (0-5 (Death)) | 5 (0-5 (Death)) | 5 (0-5 (Death)) | 5 (0-5 (Death)) | 5 (0-5 (Death)) | 0 | 0 (91-100 (No damages)) | 0 (91-100 (No damages)) | 0 (91-100 (No damages)) | 5 (0-5 (Death)) | 5 (0-5 (Death)) | 5 (0-5 (Death)) | 5 (0-5 (Death)) | 5 (0-5 (Death)) | 5 (0-5 (Death)) | 5 (0-5 (Death))
COc1cc(OC)nc(Oc2cccnc2C(OC)OC(C)C)n1 (stereo not shown) [Compound No. 5, 3-(4.6-dimethoxy-2-pyrimidinyloxy)-2-pyridinecarboxaldehyde isopropylmethylacetal] | 4 (6-10 (Severe damages)) | 5 (0-5 (Death)) | 5 (0-5 (Death)) | 5 (0-5 (Death)) | 5 (0-5 (Death)) | 5 (0-5 (Death)) | 0 | 0 (91-100 (No damages)) | 0 (91-100 (No damages)) | 0 (91-100 (No damages)) | 4 (6-10 (Severe damages)) | 5 (0-5 (Death)) | 5 (0-5 (Death)) | 4 (6-10 (Severe damages)) | 5 (0-5 (Death)) | 5 (0-5 (Death)) | 5 (0-5 (Death))
COc1cc(OC)nc(Oc2cccnc2C=O)n1 [Compound No. 1, 4,6-dimethoxy-2-(2-formyl-3-pyridyloxy)pyrimidine] | 3 (11-40 (Medium damages)) | 3 (11-40 (Medium damages)) | 2 (41-70 (Small damages)) | 3 (11-40 (Medium damages)) | 4 (6-10 (Severe damages)) | 3 (11-40 (Medium damages)) | 3 | 0 (91-100 (No damages)) | 0 (91-100 (No damages)) | 0 (91-100 (No damages)) | 4 (6-10 (Severe damages)) | 5 (0-5 (Death)) | 5 (0-5 (Death)) | 5 (0-5 (Death)) | 5 (0-5 (Death)) | 5 (0-5 (Death)) | 5 (0-5 (Death))
CCOC(OCC)c1ncccc1Oc1nc(OC)cc(OC)n1 [Compound No. 3, 3-(4,6-dimethoxy-2-pyrimidinyloxy)-2-pyridinecarboxaldehyde diethylacetal] | 4 (6-10 (Severe damages)) | 4 (6-10 (Severe damages)) | 5 (0-5 (Death)) | 5 (0-5 (Death)) | 5 (0-5 (Death)) | 5 (0-5 (Death)) | 0 | 0 (91-100 (No damages)) | 0 (91-100 (No damages)) | 0 (91-100 (No damages)) | 5 (0-5 (Death)) | 5 (0-5 (Death)) | 5 (0-5 (Death)) | 5 (0-5 (Death)) | 5 (0-5 (Death)) | 5 (0-5 (Death)) | 5 (0-5 (Death))

Source: patent US5129937A, “Pyridyloxypyrimidine derivatives, preparation process thereof, and herbicidal compositions containing the same as active ingredients” (Mitsui Toatsu Chemicals Incorporated, priority 1989, dated 1992)
